Experimental data from patent publication US11992011B2, “Compounds for controlling plant pathogens” (VIB VZW, priority 2017, dated 2024).

What was measured:
[1] = tested on: Arabidopsis thaliana seedlings; conditions: continuous exposure; Steenackers et al. 2016; cited from earlier work
[2] = tested on: wheat; experiment: Phytotoxicity of foliar spray in uninfected wheat (Example 1); format: in vivo, Triticum aestivum; conditions: 500 μM foliar spray, 8 plants per treatment
Procedure: (§1) For Examples 1, 5 and 10, seeds of the winter wheat cultivar Sahara (Aveve Agrarisch, Landen, Belgium) were used. Seeds were washed in a 10% ethanol solution to remove any residual traces of fungicide and then germinated on wet paper at room temperature for four days; seeds were transferred to SAP tubes and placed in a growth chamber (25° C., 16 hours per day of light). Plants were watered with 8 ml of half-strength Hoagland solution every two days for the first ten days and with 8 ml of full strength Hoagland solution every two days afterwards.
(§2) Unless otherwise mentioned, all chemicals for nematode experiments were applied as a foliar spray consisting of the target compound at a concentration of 300 μM together with 0.1% (v/v) Tween 20 surfactant (Calbiochem) in distilled water. Again unless otherwise mentioned, all treatments for the nematode experiments were carried out three times: one and eight days before pathogen inoculation and seven days after pathogen inoculation. In all cases, plants were sprayed until run-off with an atomizer.
Short-term phytotoxicity experiments (Example 1) were analyzed using non-parametric methods. For each variable, overall significance was determined using the Kruskal-Wallis test (Kruskal and Wallis, 1952), followed by a posthoc Conover-Iman test (Conover and Iman, 1981) with Hommel multiplicity correction (Hommel, 1988) if the Kruskal-Wallis test was significant. When only two groups were present, the Wilcoxon-Mann-Whitney test was used (Mann and Whitney, 1947).
To test whether C4H inhibitors induce phytotoxic effects in crops, uninfected tomato, wheat and carrot were treated with piperonylic acid (PA), 4-iodobenzoic acid (4-IBA) and piperic acid (PIA) at a concentration of 500 μM through foliar application. At harvest, leaf area (or shoot length in the case of wheat) and primary root length were recorded. The BBCH developmental stage (Lancashire et al., 1991), a measure of developmental retardation, was used to test for effects on development. Finally, the presence of visible signs of phytotoxicity such as chlorosis, discoloration or necrosis was recorded.

[3] = tested on: Meloidogyne incognita; experiment: M. incognita infection in NahG-expressing tomato (Example 17); format: in vivo
Procedure: (§3) Infection experiments with M. incognita were performed in the same manner as those with M. graminicola, except that plants were harvested 31 days after inoculation instead of 14 days. At this point, the plants were phenotyped by measuring the root length with a ruler and in some experiments by measuring leaf area using the EasyLeafArea software (Easlon and Bloom, 2014) and by determining shoot dry mass after 72 hours of drying in an oven at 70° C. Galls were stained and counted as described above.
To evaluate this further, a tomato line deficient in salicylic acid biosynthesis and signaling respectively was treated with PA. […] If this line still responds to PA, it further strengthens the notion that salicylic acid accumulation is not the cause of C4H inhibitor-induced nematode resistance, for which evidence in rice was already provided in Example 16.

[4] = tested on: Meloidogyne incognita; experiment: M. incognita infection in DIECA-treated tomato (Example 18); format: in vivo; conditions: PA together with DIECA
Procedure: as §3
To determine whether C4H inhibitors depend on this hormonal pathway, it was tested whether tomato plants treated with the chemical inhibitor of jasmonic acid biosynthesis diethyldithiocarbamate (DIECA) (Farmer et al., 1994) still responded to PA treatment.

[5] = tested on: J2 juveniles of Meloidogyne graminicola; experiment: In vitro nematode toxicity assay, M. graminicola J2 (Example 11); conditions: Vertimec 0.02 v/v % abamectin
Procedure: (§4) J2 juveniles of Meloidogyne graminicola and Heterodera schachtii were isolated from Echinocloa cruss-galli roots and sugar beet roots respectively. Per treatment and species combination, 300 nematodes were isolated and divided over six wells that contained 1.5 ml of either sterilized tap water, a 100 μM C4H inhibitor solution or a 0.02 v/v % solution of the nematicide abamectin (Vertimec®, Syngenta AG). The nematodes were incubated in the dark on a slow-moving rotary shaker (50 rpm) and the number of living nematodes was counted regularly using a binocular microscope.
(§5) To rule out definitively that the compounds of the invention operate through direct toxicity to nematodes, an in vitro toxicity assay on J2 juveniles of the nematodes Meloidogyne graminicola and Heterodera schachtii was performed.
(§6) First, survival upon exposure to the C4H inhibitor piperonylic acid (PA) was compared to a negative control (tap water) and a positive control, the commercial nematicide Vertimec (0.02% Abamectin). A detailed survival curve is shown in FIG. 12a (M. graminicola) and FIG. 12b (H. schachtii).
In a second experiment, a broader range of C4H inhibitors were assayed in the same manner. The toxicity of piperonylic acid (PA), piperine (PIP), 4-propynyloxybenzoic acid (4PB), and 3-(4-pyridyl)acrylic acid (3PA) to J2 juveniles of Meloidogyne graminicola was compared to a negative control (tap water) and a true nematicide (Vertimec, active ingredient abamectin).

[6] = tested on: J2 juveniles of Heterodera schachtii; experiment: In vitro nematode toxicity assay, H. schachtii J2 (Example 11); conditions: PA 100 μM, Vertimec 0.02 v/v % abamectin, control 83.1±7.6
Procedure: as §4, §5, §6

[7] = tested on: OsGH3.1; experiment: qRT-PCR in rice roots, OsGH3.1 (Example 20); format: in vivo, Oryza sativa; conditions: rice cv. Bomba root tissue; same samples as Example 19
Procedure: After quality control, qPCR was carried out.
To test whether other defense hormones might be involved, genes responsive to jasmonic acid (the biosynthesis gene OsAOS2) and auxin (the auxin conjugating enzyme OsGH3.1) were investigated. Moreover, the callose-degrading enzyme OsGNS5, downregulation of which is associated with basal defense, was also investigated. The qRT-PCR analysis was performed on the same samples used in the previous Example.

[8] = tested on: Alternaria solani, Botrytis cinerea R16, Fusarium graminearum PH1 and Fusarium graminearum GFP; format: cell-based
[9] = tested on: Pratylenchus penetrans; experiment: Pratylenchus penetrans infection in wheat cv. Sahara (Example 10); format: in vivo; conditions: PA foliar spray
Procedure: as §1
A pure culture of P. penetrans grown on carrot disks was kindly provided by Giuseppi Lucarelli (Horto Service, Noicattaro, Italy). The nematodes were multiplied by inoculating approximately 100 nematodes on a sterilized carrot disk, placing this disk in a sealed petri dish and incubating the dish at 24° C. for six weeks in the dark. Carrots were sterilized by washing and peeling them, then dipping them in ethanol and finally burning the ethanol off in a Bunsen burner.
as §2
Infection experiments with P. penetrans were performed by inoculating host plants 14 days after transfer to SAP by introducing 500 nematodes to their root system using a micro pipette. Plants were harvested 31 days after inoculation. At this point, the plants were phenotyped. Lesions were counted manually using a magnifying glass after washing and spreading open the root system. Nematodes were counted by macerating the root systems with a kitchen blender, placing a root system in 30 ml of autoclaved tap water for 24 hours and finally counting the number of nematodes in four 500 μl aliquots from each 30 ml root suspension under a binocular microscope.

[10] = infected wheat, mean ± SD, n = 8

SMILES	IC50 [1] [µM]	Root length ([2]; mean ± standard deviation) [cm]	Shoot length ([2]; mean ± standard deviation) [cm]	BBCH stage ([2]; median ± interquartile range)	change of number of galls, PA-treated NahG plants vs untreated wild type plants ([3]; NahG-expressing (SA-deficient) tomato) [%]	difference in number of galls, PA-treated NahG plants vs PA-treated wild type plants ([3]; NahG-expressing tomato, not significant)	change of number of galls, plants treated with both PA and DIECA vs untreated wild type plants [4] [%]	difference in number of galls, plants treated with both PA and DIECA vs PA-treated wild type plants ([4]; not significant)	survival after 24 hours of exposure ([5]; PA 100 μM, control 94.2±2.4) [%]	survival at the end of the experiment ([5]; second experiment, C4H inhibitor 100 μM, water control 93%) [%]	survival after 24 hours of exposure [6] [%]	Fold change vs. control, OsGH3.1 expression [7]	germination of fungal spores on agar [8]	mycelium growth compared to control agar [8]	Number of lesions [9, 10]	Number of nematodes per root system [9, 10]	change of mean number of P. penetrans nematodes found in the root system ([9]; wheat, vs control) [%]	change of mean number of root lesions in the host plant ([9]; wheat, vs control) [%]
O=C(O)/C=C/c1ccc2c(c1)OCO2 [MDCA, 3,4-methylenedioxycinnamic acid]	5.07																	
O=C(O)c1ccc2c(c1)OCO2 [PA, Piperonylic acid]		15.75 ± 2.64	31.75 ± 2.84	13 ± 0	−36	+9%	−31	+14%	97.1±1.8	95	92.8±2.5	1.21	germinated normally	slight (species-specific) growth retardation	14.4 ± 6.8	165.6 ± 61.1	−32	−39
